Data as given in publication PMC6722837, “Multiple Modulation of Acid-Sensing Ion Channel 1a by the Alkaloid Daurisoline” (Biomolecules, 2019).

Molecular target: T1, ASIC1a (acid-sensing ion channel 1a) (Rattus norvegicus, UniProt P55926)
T1 construct: gene Asic1; rat ASIC1a isoform expressed in Xenopus laevis oocytes
T1 sequence (P55926 1-526): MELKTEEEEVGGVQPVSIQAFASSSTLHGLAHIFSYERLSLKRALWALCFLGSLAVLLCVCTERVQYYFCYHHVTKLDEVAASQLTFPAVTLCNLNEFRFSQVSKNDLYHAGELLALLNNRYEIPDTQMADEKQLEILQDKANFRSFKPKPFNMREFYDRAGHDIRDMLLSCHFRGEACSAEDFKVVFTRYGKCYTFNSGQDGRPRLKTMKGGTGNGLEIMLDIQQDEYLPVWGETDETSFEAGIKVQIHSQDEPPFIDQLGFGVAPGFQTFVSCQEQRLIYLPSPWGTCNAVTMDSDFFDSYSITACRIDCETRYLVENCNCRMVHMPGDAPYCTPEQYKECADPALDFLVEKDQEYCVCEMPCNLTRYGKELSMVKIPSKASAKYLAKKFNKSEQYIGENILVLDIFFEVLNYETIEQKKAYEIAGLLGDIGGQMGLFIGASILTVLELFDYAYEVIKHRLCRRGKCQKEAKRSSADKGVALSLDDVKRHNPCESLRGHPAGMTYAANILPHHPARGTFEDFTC
Assay: two-electrode voltage clamp in Xenopus oocytes; second peak of the pH […].5-evoked current at conditioning pH […]
Type: cell-based

## COc1cc2c(cc1O)[C@@H](Cc1ccc(O)c(Oc3ccc(C[C@@H]4c5cc(OC)c(OC)cc5CCN4C)cc3)c1)N(C)CC2 [DAU, daurisoline]
  EC50: 23 ± 3 µM
